# Experimental data as given in paper PMC8699021, “Which Properties Allow Ligands to Open and Bind to the Transient Binding Pocket of Human Aldose Reductase?” (Biomolecules, 2021).
# Assays:
# [1] = biological target: T1, ALR-2 (human aldose reductase, EC 1.1.1.21) (Homo sapiens, UniProt P15121); assay: ITC direct titration; X-ray; format: binding
# T1 construct: gene AKR1B1; one molecule per asymmetric unit
# Text: ITC direct titration; X-ray on ALR-2 (human aldose reductase, EC 1.1.1.21)
# [2] = biological target: T1, ALR-2 (human aldose reductase, EC 1.1.1.21); assay: ITC direct titration; format: binding
# Text: ITC direct titration on ALR-2 (human aldose reductase, EC 1.1.1.21)
Kd [1] [nM],Kd [2] [nM],SMILES
5000 ± 600,–,"C[S+]([O-])c1cccc(CNC(=O)c2ccc(F)cc2OCC(=O)O)c1 (stereo not drawn) [compound 3, 2-(5-fluoro-2-((3-(methylsulfinyl)benzyl)carbamoyl)phenoxy)acetic acid]"
2300 ± 300,–,"O=C(O)COc1cc(F)ccc1C(=O)NCc1cccc(B(O)O)c1 [compound 4, 2-(2-((3-boronobenzyl)carbamoyl)-5-fluorophenoxy) acetic acid]"
–,420 ± 80,"O=C(O)COc1cc(F)ccc1C(=O)NCc1nc2ccccc2s1 [compound 9, inhibitor 9]"
